Measurements published in ChEMBL document CHEMBL3991601, “The target landscape of clinical kinase drugs” (Science, 2017).
The source made the active and inactive calls.

Tests used:
[1] = molecular target: T1, Peroxisomal acyl-coenzyme A oxidase 3 (Homo sapiens, UniProt O15254)
T1 sequence (O15254 whole entry): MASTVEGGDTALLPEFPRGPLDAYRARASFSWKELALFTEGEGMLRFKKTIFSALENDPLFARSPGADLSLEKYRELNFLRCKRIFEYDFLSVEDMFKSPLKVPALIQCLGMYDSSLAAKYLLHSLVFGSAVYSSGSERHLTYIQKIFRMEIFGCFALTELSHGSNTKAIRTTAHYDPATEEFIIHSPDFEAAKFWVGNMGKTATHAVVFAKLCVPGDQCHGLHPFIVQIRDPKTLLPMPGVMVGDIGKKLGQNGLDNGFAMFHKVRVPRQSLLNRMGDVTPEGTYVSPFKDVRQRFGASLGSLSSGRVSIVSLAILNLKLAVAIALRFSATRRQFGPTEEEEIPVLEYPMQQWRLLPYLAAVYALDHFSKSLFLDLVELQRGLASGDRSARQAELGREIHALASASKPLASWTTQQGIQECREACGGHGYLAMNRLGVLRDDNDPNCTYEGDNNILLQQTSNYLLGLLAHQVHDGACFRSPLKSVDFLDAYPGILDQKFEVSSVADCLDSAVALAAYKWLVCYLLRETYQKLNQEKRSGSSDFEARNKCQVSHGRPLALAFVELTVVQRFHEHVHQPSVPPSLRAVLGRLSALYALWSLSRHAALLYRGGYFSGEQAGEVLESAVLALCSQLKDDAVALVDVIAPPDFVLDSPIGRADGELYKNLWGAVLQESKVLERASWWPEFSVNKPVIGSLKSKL

[2] = molecular target: Rho-associated protein kinase 1 (Homo sapiens, UniProt Q13464)
Insulin receptor = Insulin receptor (Homo sapiens, UniProt P06213)
[3] = molecular target: T2, Mitogen-activated protein kinase kinase kinase 3 (Homo sapiens, UniProt Q99759)
T2 sequence (Q99759 whole entry): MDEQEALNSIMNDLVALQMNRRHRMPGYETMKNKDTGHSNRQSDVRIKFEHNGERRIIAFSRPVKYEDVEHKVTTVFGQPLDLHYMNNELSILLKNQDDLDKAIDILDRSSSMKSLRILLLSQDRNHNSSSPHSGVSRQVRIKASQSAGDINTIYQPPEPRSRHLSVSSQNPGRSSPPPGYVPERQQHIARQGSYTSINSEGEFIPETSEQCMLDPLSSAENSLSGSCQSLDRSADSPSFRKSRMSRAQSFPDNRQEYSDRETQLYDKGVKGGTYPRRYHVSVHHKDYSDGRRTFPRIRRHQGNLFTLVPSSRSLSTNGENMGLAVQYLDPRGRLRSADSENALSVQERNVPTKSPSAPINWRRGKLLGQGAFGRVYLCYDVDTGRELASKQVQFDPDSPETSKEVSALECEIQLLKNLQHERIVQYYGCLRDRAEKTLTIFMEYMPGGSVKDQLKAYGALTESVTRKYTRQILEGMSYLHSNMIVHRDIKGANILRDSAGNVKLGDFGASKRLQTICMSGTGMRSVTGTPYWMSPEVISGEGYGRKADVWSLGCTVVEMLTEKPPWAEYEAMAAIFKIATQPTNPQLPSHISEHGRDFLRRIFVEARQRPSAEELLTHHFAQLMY

[4] = molecular target: T3, ATP-dependent 6-phosphofructokinase, platelet type (Homo sapiens, UniProt Q01813)
T3 sequence (Q01813 whole entry): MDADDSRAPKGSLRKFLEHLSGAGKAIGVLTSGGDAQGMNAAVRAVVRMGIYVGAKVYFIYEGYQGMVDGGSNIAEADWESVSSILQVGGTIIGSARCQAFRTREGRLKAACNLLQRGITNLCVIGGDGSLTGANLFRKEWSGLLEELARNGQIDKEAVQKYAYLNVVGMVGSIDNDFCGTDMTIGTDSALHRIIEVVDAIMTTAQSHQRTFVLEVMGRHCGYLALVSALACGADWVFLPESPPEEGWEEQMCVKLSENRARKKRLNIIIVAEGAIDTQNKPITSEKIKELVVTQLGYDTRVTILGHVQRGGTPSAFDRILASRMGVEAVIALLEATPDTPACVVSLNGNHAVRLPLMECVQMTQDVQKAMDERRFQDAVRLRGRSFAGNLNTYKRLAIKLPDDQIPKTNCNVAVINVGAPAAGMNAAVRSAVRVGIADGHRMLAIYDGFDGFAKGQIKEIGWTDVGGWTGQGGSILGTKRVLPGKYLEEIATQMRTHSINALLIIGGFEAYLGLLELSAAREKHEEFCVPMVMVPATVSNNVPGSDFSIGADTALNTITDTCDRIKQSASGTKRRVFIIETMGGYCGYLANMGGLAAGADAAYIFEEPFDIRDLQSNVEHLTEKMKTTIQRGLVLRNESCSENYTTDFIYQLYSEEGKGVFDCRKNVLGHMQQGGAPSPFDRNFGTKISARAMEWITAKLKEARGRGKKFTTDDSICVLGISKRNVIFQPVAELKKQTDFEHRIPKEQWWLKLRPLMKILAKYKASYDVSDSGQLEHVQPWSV
Also: in the data inactive means no Kd found up to 30 µM.

Sequence of Insulin receptor (P06213 28-758 limits assumed): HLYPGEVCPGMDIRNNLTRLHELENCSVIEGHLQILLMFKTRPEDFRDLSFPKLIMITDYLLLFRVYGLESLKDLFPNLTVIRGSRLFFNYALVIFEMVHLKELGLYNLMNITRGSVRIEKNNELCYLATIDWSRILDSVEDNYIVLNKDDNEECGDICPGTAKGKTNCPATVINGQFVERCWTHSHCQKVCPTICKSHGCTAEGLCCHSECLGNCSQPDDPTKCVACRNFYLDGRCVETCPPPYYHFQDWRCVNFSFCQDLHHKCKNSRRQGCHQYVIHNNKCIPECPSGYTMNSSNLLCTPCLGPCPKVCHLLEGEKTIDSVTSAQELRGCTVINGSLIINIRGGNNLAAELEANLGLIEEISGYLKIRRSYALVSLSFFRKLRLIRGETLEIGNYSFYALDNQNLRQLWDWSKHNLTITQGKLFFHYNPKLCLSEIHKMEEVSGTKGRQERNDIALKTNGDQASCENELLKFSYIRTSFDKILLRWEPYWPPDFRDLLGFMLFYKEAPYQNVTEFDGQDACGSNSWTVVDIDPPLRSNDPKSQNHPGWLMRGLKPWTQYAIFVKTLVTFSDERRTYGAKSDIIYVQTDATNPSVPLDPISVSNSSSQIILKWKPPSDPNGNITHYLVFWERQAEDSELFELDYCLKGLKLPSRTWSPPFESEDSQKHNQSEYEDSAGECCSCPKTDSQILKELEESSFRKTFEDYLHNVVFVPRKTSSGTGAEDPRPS
Sequence of Insulin receptor (P06213 763-1382 limits assumed): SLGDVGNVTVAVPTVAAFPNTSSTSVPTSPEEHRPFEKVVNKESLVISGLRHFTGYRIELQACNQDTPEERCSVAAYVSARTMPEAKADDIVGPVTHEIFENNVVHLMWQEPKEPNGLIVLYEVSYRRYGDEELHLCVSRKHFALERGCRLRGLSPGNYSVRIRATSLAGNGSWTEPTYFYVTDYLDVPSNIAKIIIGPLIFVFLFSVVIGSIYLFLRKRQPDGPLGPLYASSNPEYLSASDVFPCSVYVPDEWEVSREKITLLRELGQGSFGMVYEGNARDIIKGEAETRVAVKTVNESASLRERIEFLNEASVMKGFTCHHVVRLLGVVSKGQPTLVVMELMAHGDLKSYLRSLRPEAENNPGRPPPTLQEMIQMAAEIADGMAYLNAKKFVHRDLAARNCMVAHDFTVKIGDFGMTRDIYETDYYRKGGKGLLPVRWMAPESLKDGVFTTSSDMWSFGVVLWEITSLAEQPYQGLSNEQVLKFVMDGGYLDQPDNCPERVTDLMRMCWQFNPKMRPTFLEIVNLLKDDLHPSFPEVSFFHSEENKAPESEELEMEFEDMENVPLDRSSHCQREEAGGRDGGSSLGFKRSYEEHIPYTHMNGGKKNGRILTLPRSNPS
Sequence of Rho-associated protein kinase 1 (Q13464 whole entry): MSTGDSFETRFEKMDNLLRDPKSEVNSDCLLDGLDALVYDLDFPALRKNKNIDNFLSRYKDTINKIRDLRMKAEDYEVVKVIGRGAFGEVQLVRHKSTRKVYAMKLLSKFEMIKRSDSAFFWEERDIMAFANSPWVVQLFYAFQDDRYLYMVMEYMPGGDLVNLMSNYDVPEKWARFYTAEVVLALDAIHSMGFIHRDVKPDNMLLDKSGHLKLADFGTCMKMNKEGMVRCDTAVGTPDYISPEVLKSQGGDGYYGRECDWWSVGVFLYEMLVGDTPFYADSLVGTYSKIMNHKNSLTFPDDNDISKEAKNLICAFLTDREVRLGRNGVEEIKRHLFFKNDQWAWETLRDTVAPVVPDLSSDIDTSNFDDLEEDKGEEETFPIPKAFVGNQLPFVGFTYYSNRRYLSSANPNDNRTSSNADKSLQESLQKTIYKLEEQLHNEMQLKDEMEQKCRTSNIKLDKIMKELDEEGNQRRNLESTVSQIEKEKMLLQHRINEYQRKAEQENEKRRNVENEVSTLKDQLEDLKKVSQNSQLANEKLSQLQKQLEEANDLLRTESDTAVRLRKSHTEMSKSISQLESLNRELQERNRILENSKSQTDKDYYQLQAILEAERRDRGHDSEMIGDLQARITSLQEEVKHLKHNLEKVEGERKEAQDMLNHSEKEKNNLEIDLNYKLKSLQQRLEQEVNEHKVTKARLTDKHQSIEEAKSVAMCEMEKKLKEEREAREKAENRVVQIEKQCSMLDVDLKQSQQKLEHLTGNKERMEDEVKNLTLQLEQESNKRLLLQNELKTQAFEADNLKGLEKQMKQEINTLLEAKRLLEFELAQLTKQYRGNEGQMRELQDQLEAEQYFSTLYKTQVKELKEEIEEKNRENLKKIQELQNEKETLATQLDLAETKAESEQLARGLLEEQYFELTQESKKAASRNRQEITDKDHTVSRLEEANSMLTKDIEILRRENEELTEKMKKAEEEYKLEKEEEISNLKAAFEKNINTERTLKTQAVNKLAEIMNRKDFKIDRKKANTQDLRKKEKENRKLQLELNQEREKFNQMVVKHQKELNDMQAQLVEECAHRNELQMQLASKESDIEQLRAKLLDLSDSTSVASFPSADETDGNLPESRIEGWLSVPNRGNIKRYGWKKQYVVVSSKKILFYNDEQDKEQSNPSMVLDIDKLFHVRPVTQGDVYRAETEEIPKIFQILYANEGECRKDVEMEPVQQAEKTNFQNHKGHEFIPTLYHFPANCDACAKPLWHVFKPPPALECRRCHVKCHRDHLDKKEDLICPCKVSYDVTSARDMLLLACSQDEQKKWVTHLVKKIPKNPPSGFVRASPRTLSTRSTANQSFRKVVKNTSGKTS

Row | Kd [1] | Kd [2] | Kd (Insulin receptor) | Kd [3] | Kd [4] | Structure (SMILES)
1 | > 30 µM (inactive) | > 30 µM (inactive) | > 30 µM (inactive) | > 30 µM (inactive) |  | C[C@@H](Oc1cc(C(=O)Nc2ccc(C(=O)N3CCN(C)CC3)cc2)nnc1N)c1c(Cl)ccc(F)c1Cl
2 | > 30 µM (inactive) |  | > 30 µM (inactive) | > 30 µM (inactive) | > 30 µM (inactive) | C[C@H]1CNCCCN1S(=O)(=O)c1cccc2cncc(F)c12
3 | > 30 µM (inactive) | > 30 µM (inactive) | > 30 µM (inactive) | > 30 µM (inactive) | > 30 µM (inactive) | CCNC(=O)C#Cc1ccc2c(c1)NC(=O)/C2=C(\Nc1ccc(CN(C)C)cc1)c1ccccc1
4 | > 30 µM (inactive) | > 30 µM (inactive) | > 30 µM (inactive) | > 30 µM (inactive) | > 30 µM (inactive) | C=CC(=O)N1CCC[C@H](n2c(=O)n(-c3ccc(Oc4ccccc4)cc3)c3c(N)ncnc32)C1
5 | > 30 µM (inactive) | > 30 µM (inactive) | > 30 µM (inactive) | > 30 µM (inactive) | > 30 µM (inactive) | COCc1c(-c2ccc(NC(=O)Nc3cc(C(F)(F)F)ccc3F)c(F)c2)c2c(N)ncnn2c1CN1CCOCC1
6 | > 30 µM (inactive) |  |  | > 30 µM (inactive) | > 30 µM (inactive) | COc1cc(Nc2ncc3c(n2)-c2ccc(Cl)cc2C(c2c(F)cccc2OC)=NC3)ccc1C(=O)O [ALISERTIB]
7 | > 30 µM (inactive) |  |  |  | > 30 µM (inactive) | CNC(=O)c1ccccc1Sc1ccc2c(/C=C/c3ccccn3)n[nH]c2c1 [AXITINIB]
8 | > 30 µM (inactive) | > 30 µM (inactive) |  | > 30 µM (inactive) | > 30 µM (inactive) | COc1cc2ncnc(Oc3cccc(NC(=O)Nc4cc(C(C)(C)C(F)(F)F)on4)c3)c2cc1OC [CEP-32496]
9 | > 30 µM (inactive) | > 30 µM (inactive) |  | > 30 µM (inactive) | > 30 µM (inactive) | Cc1cc(Nc2ncc(Cl)c(Nc3ccccc3S(=O)(=O)C(C)C)n2)c(OC(C)C)cc1C1CCNCC1 [CERITINIB]
10 | > 30 µM (inactive) | > 30 µM (inactive) | > 30 µM (inactive) | > 30 µM (inactive) |  | C#Cc1cccc(Nc2ncnc3cc(OC)c(OCCCCCCC(=O)NO)cc23)c1 [CUDC-101]
11 | > 30 µM (inactive) |  |  |  | > 30 µM (inactive) | C[C@@H](Oc1cc(-n2cnc3ccc(CN4CCN(C)CC4)cc32)sc1C(N)=O)c1ccccc1C(F)(F)F [GSK-461364]
12 | > 30 µM (inactive) | > 30 µM (inactive) |  | > 30 µM (inactive) | > 30 µM (inactive) | CCn1cc(-c2ccnc3[nH]c(-c4cccc(CN(C)C)c4)cc23)c(-c2ccc(NC(=O)N(C)C)cc2)n1 [GSK-1070916]
13 | > 30 µM (inactive) |  | > 30 µM (inactive) | > 30 µM (inactive) | > 30 µM (inactive) | CNC(=O)c1cccc2cc(Oc3ccnc4cc(OCC5(N)CC5)c(OC)cc34)ccc12 [LUCITANIB]
14 | > 30 µM (inactive) | > 30 µM (inactive) | > 30 µM (inactive) | > 30 µM (inactive) |  | Cn1cc(-c2cnc3ccc4ccc(CS(=O)(=O)NCc5ccccn5)cc4c(=O)c3c2)cn1 [MK-8033]
15 | > 30 µM (inactive) |  |  | > 30 µM (inactive) | > 30 µM (inactive) | Cc1[nH]c(/C=C2\C(=O)Nc3ccccc32)c(C)c1CCC(=O)O [ORANTINIB]
16 | > 30 µM (inactive) |  |  |  | > 30 µM (inactive) | NC(=O)c1c(OCc2c(F)cc(Br)cc2F)nsc1NC(=O)NCCCCN1CCCC1 [OSI-632]
17 | > 30 µM (inactive) |  |  | 0.246 µM (active) | > 30 µM (inactive) | CC(=O)NCC(=O)N1[C@@H]2CC[C@H]1c1ccc(Nc3ncc(C(F)(F)F)c(NC4CCC4)n3)cc12 [PF-03814735]
18 | > 30 µM (inactive) | > 30 µM (inactive) | > 30 µM (inactive) | > 30 µM (inactive) |  | CO[C@H]1C[C@@H]2CC[C@@H](C)[C@@](O)(O2)C(=O)C(=O)N2CCCC[C@H]2C(=O)O[C@H]([C@H](C)C[C@@H]2CC[C@@H](OP(C)(C)=O)[C@H](OC)C2)CC(=O)[C@H](C)/C=C(\C)[C@@H](O)[C@@H](OC)C(=O)[C@H](C)C[C@H](C)/C=C/C=C/C=C/1C [RIDAFOROLIMUS]
19 | > 30 µM (inactive) |  | > 30 µM (inactive) | > 30 µM (inactive) | > 30 µM (inactive) | N#CC1(c2ccc(NC(=O)c3cccnc3NCc3ccncc3)cc2)CCCC1 [RIVOCERANIB]
20 | > 30 µM (inactive) |  |  |  | > 30 µM (inactive) | O=C(NOCCO)c1cc(CN2OCCCC2=O)c(F)c(F)c1Nc1ccc(I)cc1F [RO-4987655]
21 | > 30 µM (inactive) |  |  |  | > 30 µM (inactive) | N#CC[C@H](C1CCCC1)n1cc(-c2ncnc3[nH]ccc23)cn1 [RUXOLITINIB]
22 | > 30 µM (inactive) |  | > 30 µM (inactive) | > 30 µM (inactive) | > 30 µM (inactive) | O=c1[nH]ccc2cc(OC3CCNCC3)ccc12 [SAR-407899 FREE BASE]
23 | > 30 µM (inactive) | > 30 µM (inactive) | > 30 µM (inactive) | > 30 µM (inactive) |  | Cn1cc(-c2cnn3c(N)c(Br)c([C@@H]4CCCNC4)nc23)cn1 [SCH-900776]
24 | > 30 µM (inactive) |  | > 30 µM (inactive) | > 30 µM (inactive) | > 30 µM (inactive) | O=C(Cc1ccc(-c2ccc(OCCN3CCOCC3)cc2)cn1)NCc1ccccc1 [TIRBANIBULIN]
25 | > 30 µM (inactive) |  | > 30 µM (inactive) | > 30 µM (inactive) | > 30 µM (inactive) | Cn1ncc(Cl)c1-c1cc(C(=O)N[C@H](CN)Cc2ccc(F)c(F)c2)oc1Cl [UPROSERTIB]
26 | > 30 µM (inactive) |  | > 30 µM (inactive) | > 30 µM (inactive) | > 30 µM (inactive) | C[C@@H](N)c1ccc(C(=O)Nc2ccnc3[nH]ccc23)cc1 [Y-39983]

Row | Structure (SMILES) | Kd [1] | Kd [2] | Kd (Insulin receptor) | Kd [3] | Kd [4]
27 | CC(=O)c1cnc2ccc(-c3cc(Cl)c(O)c(Cl)c3)nc2c1N[C@H]1CC[C@H](CN(C)C)CC1 | > 30 µM (inactive) | > 30 µM (inactive) | > 30 µM (inactive) |  | > 30 µM (inactive)
28 | NC(=O)Nc1cc(-c2cccc(F)c2)sc1C(=O)N[C@H]1CCCNC1 [AZD-7762] | > 30 µM (inactive) |  | > 30 µM (inactive) | > 30 µM (inactive) | > 30 µM (inactive)
29 | CC(C)(C)c1nc(-c2cccc(NS(=O)(=O)c3c(F)cccc3F)c2F)c(-c2ccnc(N)n2)s1 [DABRAFENIB] | > 30 µM (inactive) |  | > 30 µM (inactive) |  | > 30 µM (inactive)
30 | Cn1cc(C2=C(c3cn(C4CCN(Cc5ccccn5)CC4)c4ccccc34)C(=O)NC2=O)c2ccccc21 [ENZASTAURIN] | > 30 µM (inactive) |  |  |  | > 30 µM (inactive)
31 | O=C(Nc1cc(C(F)(F)F)cc(C(F)(F)F)c1)c1cc(Cl)ccc1O [IMD-0354] | > 30 µM (inactive) |  | > 30 µM (inactive) | > 30 µM (inactive) | 
